Reference: US7078499B2, “Nucleotide analogues comprising a reporter moiety and a polymerase enzyme blocking moiety” (GE Healthcare UK Limited, priority 2000, dated 2006)

Tests used:
Format in all cases: biochemical
deltaTts DNA polymerase = assay: Thermostable DNA polymerase primer extension, delta Tts; parameters: key to result of incorporation (termination / further chain extension): T: Incorporation results in termination; E: Incorporation permits further chain extension; T/E: Predominant product is primer extended by one base, but evidence of some further extension also observed; conditions: DNA template, 45° C. for 20–40 minutes; for primer extended by at least one base within assay time (grade): TTP replaced entirely by test compound
Method: (§1) DNA polymerase assays were performed using Sequence 1 as primer and Sequence 2 as template. • Sequence 1 5′[Cy3]TAACTCATTAACAGGATC 3′ • Sequence 2 5′AT TCGCGGTATTCTGGTATGAAGCTTTTAGATCCTGTTAATGAGTTA GTA3′
(§2) The template (Sequence 2) was designed such that the base (underlined) immediately adjacent to the 3′ end of the hybridised primer is complementary to the nucleotide test compound. Nucleotide test compounds were compounds (6) (4′-C-(glycylaminomethyl)thymidine triphosphate), (8) (4′-C-(N-trifluoroacetyaminomethyl)thymidine triphosphate) and (9) (4′-C-(aminomethyl)thymidine triphosphate) as described above.
(§3) Primer extension reactions were performed using the above primers in the presence of 40 to 80 μM of nucleotide triphosphates. Positive control reactions contained all four native nucleotide triphosphates. For the other reactions the TTP was replaced with either a 2:1 ratio of […] for the terminator control, or entirely by the test compound The enzymes were used at a final concentration of 0.175 units/μl and a magnesium ion concentration of 2.5 mM in buffers supplied by the manufacturer. The primer and template concentrations were 0.5 pmol/μl and 2 pmol/μl respectively.
Extension reactions with thermophilic enzymes were performed by initially denaturing the fully assembled reactions at 70° C. for 5 min. followed by 45° C. for 20–40 minutes. The following enzymes were used: Taq DNA polymerase (Taq); Thermosequenase (TS); Thermosequenase II (TSII); Thermosequenase E (TSE), Tfl DNA polymerase (Tfl); Tth DNA polymerase (Tth), deltaTts DNA polymerase (deltaTts), deltaTts D DNA polymerase (dettaTTSD) (all from APBiotech); Pfu DNA polymerase (Pfu) (Stratagene Ltd); Vent™ DNA polymerase (Vent) (New England Biolabs).
(§4) The reactions were stopped by adding a 0.5 volume aliquot of 80% formamide containing 0.1% (w/v) bromophenol blue and 0.1% (w/v) cresol blue. The reaction products were separated by denaturing gel electrophoresis at a constant power of 45 W on 16% polyacrylamide gels containing 50% urea.
(§5) Gels were scanned for Cy3 fluorescence on a Molecular Dynamics Fluorimager and the data analysed using Molecular Dynamics ImageQuant 5 software.
(§6) The incorporation of a test nucleotide triphosphate results in the appearance on a polyacrylamide gel of a single band corresponding to a single base extension product. If, however, the enzyme adds additional bases then further bands would be observed that corresponded to either the full-length product or positions of other complementary bases in the template.

T4 DNA polymerase = target: T1, T4 DNA polymerase (Enterobacteria phage T4, UniProt P04415); assay: Mesophilic DNA polymerase primer extension, T4; parameters: key to result of incorporation (termination / further chain extension): T: Incorporation results in termination; E: Incorporation permits further chain extension; T/E: Predominant product is primer extended by one base, but evidence of some further extension also observed; conditions: DNA template, 37° C. for 20–40 minutes; for primer extended by at least one base within assay time (grade): TTP replaced entirely by test compound
T1 construct: purchased AP Biotech
T1 sequence (P04415 1-898): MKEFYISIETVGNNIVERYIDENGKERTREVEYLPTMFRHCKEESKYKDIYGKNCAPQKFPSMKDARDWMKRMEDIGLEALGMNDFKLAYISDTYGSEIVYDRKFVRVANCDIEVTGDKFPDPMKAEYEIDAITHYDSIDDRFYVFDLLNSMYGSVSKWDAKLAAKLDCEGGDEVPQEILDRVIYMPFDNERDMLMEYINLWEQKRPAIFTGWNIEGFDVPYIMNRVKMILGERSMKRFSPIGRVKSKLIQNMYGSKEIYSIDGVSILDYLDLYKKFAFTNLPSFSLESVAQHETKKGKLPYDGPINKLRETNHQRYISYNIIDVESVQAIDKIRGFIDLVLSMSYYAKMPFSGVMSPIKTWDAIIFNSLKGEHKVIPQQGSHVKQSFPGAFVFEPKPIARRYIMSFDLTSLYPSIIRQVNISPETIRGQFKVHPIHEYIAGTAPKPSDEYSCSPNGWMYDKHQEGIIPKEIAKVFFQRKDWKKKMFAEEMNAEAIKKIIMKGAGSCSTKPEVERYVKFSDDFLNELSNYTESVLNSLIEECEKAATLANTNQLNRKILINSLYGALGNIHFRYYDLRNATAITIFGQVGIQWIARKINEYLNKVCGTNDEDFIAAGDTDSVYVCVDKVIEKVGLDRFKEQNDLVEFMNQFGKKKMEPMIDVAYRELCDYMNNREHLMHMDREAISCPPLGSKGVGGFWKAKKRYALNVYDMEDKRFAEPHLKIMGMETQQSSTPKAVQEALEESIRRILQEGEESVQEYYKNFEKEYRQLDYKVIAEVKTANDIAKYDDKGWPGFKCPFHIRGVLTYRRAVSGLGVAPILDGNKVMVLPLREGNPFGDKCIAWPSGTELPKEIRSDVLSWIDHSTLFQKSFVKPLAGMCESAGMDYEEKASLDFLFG
Method: as §1, §2, §3
(§7) Extension reactions preformed with mesophilic polymerases were carried out by mixing all the components of the reaction except the enzyme and heating to 70° C. for 5 min. After the reactions had cooled to room temperature 0.175 units of the enzyme were added and the reactions heated to 37° C. for 20–40 minutes. The following enzymes were used: T7 DNA polymerase (T7); Sequenase 2™ (Seq); Klenow fragment of DNA polymerase 1 (Klen); phi-29 DNA polymerase (Phi-29); T4 DNA polymerase (T4) (all from AP Biotech) and Bst DNA polymerase (Bst) (Cambio Ltd).
as §4, §5, §6

[1] = target: T2, Klenow fragment of DNA polymerase 1 (Escherichia coli, UniProt P00582); assay: Mesophilic DNA polymerase primer extension, Klen; parameters: key: −: No extension within assay time; +/−: up to 25% of primer extended by at least one base within assay time; +: up to 50% of primer extended by at least one base within assay time; ++: up to 75% of primer extended by at least one base within assay time; +++: essentially all primer extended by at least one base within assay time; conditions: DNA template, TTP replaced entirely by test compound, 37° C. for 20–40 minutes
T2 construct: Klenow fragment of DNA polymerase 1 (Klen); purchased AP Biotech
T2 sequence (P00582 324-928): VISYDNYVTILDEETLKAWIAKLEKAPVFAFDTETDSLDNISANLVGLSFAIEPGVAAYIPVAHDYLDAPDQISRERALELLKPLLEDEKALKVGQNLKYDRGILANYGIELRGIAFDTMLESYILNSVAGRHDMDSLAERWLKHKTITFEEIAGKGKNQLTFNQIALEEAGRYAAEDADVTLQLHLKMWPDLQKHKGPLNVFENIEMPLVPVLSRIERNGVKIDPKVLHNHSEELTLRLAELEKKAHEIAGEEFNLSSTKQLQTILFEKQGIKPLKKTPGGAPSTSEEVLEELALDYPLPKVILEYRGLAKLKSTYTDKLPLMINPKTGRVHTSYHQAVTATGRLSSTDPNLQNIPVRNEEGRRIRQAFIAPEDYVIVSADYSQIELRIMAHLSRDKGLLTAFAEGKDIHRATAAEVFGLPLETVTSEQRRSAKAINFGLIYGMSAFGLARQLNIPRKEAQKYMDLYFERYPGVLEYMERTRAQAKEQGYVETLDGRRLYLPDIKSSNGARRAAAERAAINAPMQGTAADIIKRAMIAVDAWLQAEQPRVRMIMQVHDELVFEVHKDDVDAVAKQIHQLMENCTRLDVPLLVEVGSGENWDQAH
Method: as §1, §2, §3, §7
The reactions were stopped by adding a 0.5 volume aliquot of 80% formamide containing 0.1% (w/v) bromophenol blue and 0.1% (w/v) cresol blue. […]
Gels were scanned for Cy3 fluorescence on a Molecular Dynamics Fluorimager and the data analysed using Molecular Dynamics ImageQuant 5 software. […]

Row | Molecule | result of incorporation (termination / further chain extension) (deltaTts DNA polymerase) | primer extended by at least one base within assay time (grade) (deltaTts DNA polymerase) | result of incorporation (termination / further chain extension) (T4 DNA polymerase) | primer extended by at least one base within assay time (grade) (T4 DNA polymerase) | primer extended by at least one base within assay time (grade) [1]
1 | 4′-C-(Aminomethyl)thymidine triphosphate [compound (9)] | T | +T | T | + (up to 50% of primer extended by at least one base within assay time) | −
2 | 4′-C-(Glycylaminomethyl)thymidine triphosphate [compound (6)] | T | + (up to 50% of primer extended by at least one base within assay time) | T | + (up to 50% of primer extended by at least one base within assay time) | −
3 | Cc1cn([C@H]2C[C@H](O)[C@@](CNC(=O)C(F)(F)F)(COP(=O)(O)OP(=O)(O)OP(=O)(O)O)O2)c(=O)[nH]c1=O [compound (8), 4′-C-(N-trifluoroacetylaminomethyl)thymidine triphosphate] | T | + (up to 50% of primer extended by at least one base within assay time) | T | + (up to 50% of primer extended by at least one base within assay time) | −
